How the values were obtained:
APC11/APC2 = APC11/APC2 (Homo sapiens, UniProt Q9NYG5+Q9UJX6); test: APC-11/APC-2 ligase assay (APC auto ubiquitination); assay type: biochemical; conditions: APC assay
Method in brief: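 His-tagged APC was captured on nickel plates with human E1 (5 ng/well), UbcH5c (20 ng/well), APC (100 ng/well) and Flag-ubiquitin (100 ng/well) in a Tris pH 7.6 reaction buffer containing 2.5 mM ATP, for 1 hour at room temperature. Read-out was anti-Flag/HRP chemiluminescence. IC50 was set against a DMSO control, typically from 6 or 8 concentrations.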

[1] = test system: ICAM-1 expression in A549 cells; test: ICAM assay (IL-1 induced ICAM-1/CD54 expression in A549 cells); assay type: cell-based, human
Method in brief: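 Luminescent immunostaining (anti-CD54, then anti-mouse IgG, 1 h) quantifies ICAM-1 on A549 cells induced 4 h at 37° C by IL-1 (4 μl of 25 ng/ml added). Compound is added 1 h before the cytokine to cells plated overnight at 10,000 per well.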

TRAF6/Uev1A/Ubc13 = target: T1, TRAF6/Uev1A/Ubc13 (Homo sapiens, UniProt Q9Y4K3); test: TRAF6/Uev1A/Ubc13 plate-based ubiquitin ligase assay; assay type: biochemical
T1 sequence (Q9Y4K3 1-522): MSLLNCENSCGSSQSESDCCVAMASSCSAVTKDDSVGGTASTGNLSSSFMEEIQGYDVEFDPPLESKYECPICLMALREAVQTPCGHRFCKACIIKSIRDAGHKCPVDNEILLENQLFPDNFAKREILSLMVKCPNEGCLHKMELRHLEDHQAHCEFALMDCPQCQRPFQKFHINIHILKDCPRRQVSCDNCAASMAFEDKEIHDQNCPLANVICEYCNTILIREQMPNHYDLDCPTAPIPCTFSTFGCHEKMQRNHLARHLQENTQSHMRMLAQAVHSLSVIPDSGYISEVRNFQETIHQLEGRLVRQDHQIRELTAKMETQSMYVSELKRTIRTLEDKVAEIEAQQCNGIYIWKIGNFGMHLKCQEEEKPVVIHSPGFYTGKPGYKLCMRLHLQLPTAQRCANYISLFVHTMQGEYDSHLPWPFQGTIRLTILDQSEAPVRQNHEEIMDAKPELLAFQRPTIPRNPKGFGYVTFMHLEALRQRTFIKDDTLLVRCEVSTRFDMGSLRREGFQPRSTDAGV
Method in brief: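 Ligase activity was read as luminescence from anti-Flag/HRP detection of Flag-ubiquitin bound to casein-blocked Ni-plates alongside His-ubiquitin after a 1 h room-temperature reaction. Buffer: 62.5 mM Tris pH 7.5, 6.25 mM MgCl2, 1.0 mM DTT, 2 μM ATP; E1, Uev1a/Ubc13 and TRAF6 added last to start. IC50s derived across compound concentrations.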

Sequence of APC11/APC2 (Q9NYG5 whole entry): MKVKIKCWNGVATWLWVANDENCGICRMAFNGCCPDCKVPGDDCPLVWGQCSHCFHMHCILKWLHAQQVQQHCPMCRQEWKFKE
Sequence of APC11/APC2 (Q9UJX6 whole entry): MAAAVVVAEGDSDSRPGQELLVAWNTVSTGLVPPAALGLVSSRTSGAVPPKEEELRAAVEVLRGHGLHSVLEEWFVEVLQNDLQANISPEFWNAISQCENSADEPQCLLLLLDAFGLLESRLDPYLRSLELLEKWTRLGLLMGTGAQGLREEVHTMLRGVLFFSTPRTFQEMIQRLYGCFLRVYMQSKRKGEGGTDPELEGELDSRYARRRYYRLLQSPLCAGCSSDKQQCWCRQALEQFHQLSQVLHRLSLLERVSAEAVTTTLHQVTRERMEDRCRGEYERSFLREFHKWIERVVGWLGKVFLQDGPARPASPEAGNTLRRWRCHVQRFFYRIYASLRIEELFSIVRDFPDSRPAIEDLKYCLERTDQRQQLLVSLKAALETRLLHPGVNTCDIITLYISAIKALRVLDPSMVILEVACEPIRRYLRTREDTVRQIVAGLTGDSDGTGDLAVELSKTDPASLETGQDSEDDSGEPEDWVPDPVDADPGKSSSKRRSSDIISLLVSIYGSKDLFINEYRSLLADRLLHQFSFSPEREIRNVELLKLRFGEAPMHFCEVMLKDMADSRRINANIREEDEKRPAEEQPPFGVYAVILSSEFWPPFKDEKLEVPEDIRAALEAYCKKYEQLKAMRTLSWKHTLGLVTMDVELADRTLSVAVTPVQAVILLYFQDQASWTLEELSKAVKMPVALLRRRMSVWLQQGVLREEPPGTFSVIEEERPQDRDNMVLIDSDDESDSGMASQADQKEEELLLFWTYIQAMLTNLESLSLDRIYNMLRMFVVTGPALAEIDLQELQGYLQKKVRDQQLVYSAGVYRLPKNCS

| SMILES | IC50 (APC11/APC2) | IC50 ([1]; Homo sapiens, A549, ICAM assay) | IC50 (TRAF6/Uev1A/Ubc13) | IC50 ([1]; ICAM assay) |
| --- | --- | --- | --- | --- |
| Cc1cccc(-c2cc([N+](=O)[O-])cc3nonc23)c1 [compound 478, 6-nitro-4-m-tolyl-2,1,3-benzoxadiazole] | 1 to 20 µM | 1 to 20 µM | ≥ 20 µM |  |
| O=S(=O)(Nc1ccccc1OC(F)(F)F)c1ccc(Cl)c2nonc12 [compound 366, 7-chloro-N-(2-[trifluoromethoxy]phenyl)-2,1,3-benzoxadiazole-4-sulfonamide] | ≥ 20 µM | 1 to 20 µM | ≥ 20 µM |  |
| O=S(=O)(Nc1cccc2ccccc12)c1ccc(Sc2cccc3cccnc23)c2nonc12 [compound 407, N-(naphthalen-1-yl)-7-(quinolin-8-ylthio)-2,1,3-benzoxadiazole-4-sulfonamide] | 1 to 20 µM | 1 to 20 µM | 1 to 20 µM |  |
| Cc1ccc(F)cc1NS(=O)(=O)c1ccc(Cl)c2nonc12 [compound 351, 7-chloro-N-(5-fluoro-2-methylphenyl)-2,1,3-benzoxadiazole-4-sulfonamide] | ≥ 20 µM | 1 to 20 µM | ≥ 20 µM |  |
| CC(C)(C)c1ccc(-c2cc3cc(O)ccc3c3nonc23)cc1 [compound 454] | 1 to 20 µM | ≥ 20 µM | ≥ 20 µM |  |
| Cc1ccc(C)c(-c2ccc([N+](=O)[O-])c3nonc23)c1 [compound 471, 4-(2,5-dimethylphenyl)-7-nitro-2,1,3-benzoxadiazole] | 1 to 20 µM | 1 to 20 µM | ≥ 20 µM |  |
| O=S(=O)(c1ccc(Sc2cccc3ccccc23)c2nonc12)N1CCC2(CC1)OCc1ccccc12 [compound 334, 1′-{(7-[naphth-1-ylthio]-2,1,3-benzoxadiazol-4-yl)}sulfonyl-3H-spiro[2-benzofuran-1,4′-piperidine]] | ≥ 20 µM | 1 to 20 µM | ≥ 20 µM |  |
| COc1ccc(-c2cc3nsnc3cc2F)cc1 [compound 462, 5-(4-methoxyphenyl)-6-fluoro-2,1,3-benzthiadiazole] | ≥ 20 µM | ≥ 20 µM | ≥ 20 µM |  |
| Cc1ccc(-c2cc3nsnc3cc2F)cc1C [compound 459, 5-(3,4-dimethylphenyl)-6-fluoro-2,1,3-benzthiadiazole] | ≥ 20 µM | ≥ 20 µM | ≥ 20 µM |  |
| CC(=O)Nc1ccc(-c2cc(C)cc(C)c2)c2nonc12 [compound 436, N-(7-[3,5-dimethylphenyl]-2,1,3-benzoxadiazol-4-yl)acetamide] | ≥ 20 µM | ≥ 20 µM | ≥ 20 µM |  |
| O=S(=O)(NCC1CCCCC1)c1ccc(Cl)c2nonc12 [compound 447, 7-chloro-N-(cyclohexylmethyl)-2,1,3-benzoxadiazole-4-sulfonamide] | ≥ 20 µM | 1 to 20 µM | ≥ 20 µM |  |
| COc1ccc(C)cc1NS(=O)(=O)c1ccc(Sc2cccc3cccnc23)c2nonc12 [compound 384, N-(2-methoxy-5-methylphenyl)-7-(quinolin-8-ylthio)-2,1,3-benzoxadiazole-4-sulfonamide] | ≥ 20 µM | ≥ 20 µM | 1 to 20 µM |  |
| O=C1OC2(CCN(S(=O)(=O)c3ccc(Cl)c4nonc34)CC2)c2ccccc21 [compound 332, 1′-{[7-chloro-(2,1,3-benzoxadiazol-4-yl)]sulfonyl}-3H-spiro[2-benzofuran-1,4′-piperidin]-3-one] | 1 to 20 µM | ≥ 20 µM | ≥ 20 µM |  |
| O=S(=O)(Nc1c(F)cccc1F)c1c(Cl)cc(Cl)c2nonc12 [compound 414, 5,7-dichloro-N-(2,6-difluorophenyl)-2,1,3-benzoxadiazole-4-sulfonamide] | 1 to 20 µM | 1 to 20 µM | 1 to 20 µM |  |
| COc1ccc2nonc2c1-c1cc(C)cc(C)c1 [compound 450, 4-(3,5-dimethylphenyl)-5-methoxy-2,1,3-benzoxadiazole] | ≥ 20 µM | ≥ 20 µM | ≥ 20 µM |  |
| O=S(=O)(Nc1ncccc1OCc1ccccc1)c1ccc(N2CCOCC2)c2nonc12 [compound 382, N-(3-benzyloxypyridin-2-yl)-7-(morpholin-4-yl)-2,1,3-benzoxadiazole-4-sulfonamide] | ≥ 20 µM | ≥ 20 µM | ≥ 20 µM |  |
| O=[N+]([O-])c1ccc(Nc2cccc(F)c2F)c2nonc12 [compound 397, N-(2,3-difluorophenyl)-7-nitro-2,1,3-benzoxadiazol-4-amine] | ≥ 20 µM | ≥ 20 µM | ≥ 20 µM |  |
| O=S(=O)(Nc1cccc(F)c1F)c1ccc(Sc2ccncn2)c2nonc12 [compound 377, N-(2,3-difluorophenyl)-7-(pyrimidin-4-ylthio)-2,1,3-benzoxadiazole-4-sulfonamide] | ≥ 20 µM | ≥ 20 µM | ≥ 20 µM |  |
| O=[N+]([O-])c1cc(-c2cccc(C(F)(F)F)c2)c2nonc2c1 [compound 480, 4-(3-[trifluoromethyl]phenyl)-6-nitro-2,1,3-benzoxadiazole] | 1 to 20 µM | 1 to 20 µM | ≥ 20 µM |  |
| O=[N+]([O-])c1c(N2CCCCC2)cc(-c2ccc(C(F)(F)F)cc2)c2nonc12 [compound 431, 7-(4-[trifluoromethyl]phenyl)-4-nitro-5-(piperidin-1-yl)-2,1,3-benzoxadiazole] | ≥ 20 µM | ≥ 20 µM | ≥ 20 µM |  |
| CC(=O)Nc1ccc(-c2ccc(C(C)(C)C)cc2)c2nonc12 [compound 453, N-(7-(4-t-butylphenyl)-2,1,3-benzoxadiazol-4-yl)acetamide] | 1 to 20 µM | ≥ 20 µM | ≥ 20 µM |  |
| O=[N+]([O-])c1c(N2CCCCC2)cc(-c2cccc(C(F)(F)F)c2)c2nonc12 [compound 429, 7-(3-[trifluoromethyl]phenyl)-4-nitro-5-(piperidin-1-yl)-2,1,3-benzoxadiazole] | ≥ 20 µM | ≥ 20 µM | ≥ 20 µM |  |

Further lines, results first:

| IC50 (APC11/APC2) | IC50 ([1]; Homo sapiens, A549, ICAM assay) | IC50 (TRAF6/Uev1A/Ubc13) | IC50 ([1]; ICAM assay) | SMILES |
| --- | --- | --- | --- | --- |
| ≥ 20 µM | ≥ 20 µM | ≥ 20 µM |  | Nc1ccc(Nc2cccc(F)c2F)c2nonc12 [compound 396, 7-{(2,3-difluorophenyl)amino}-2,1,3-benzoxadiazol-4-amine] |
| ≥ 20 µM | ≥ 20 µM | ≥ 20 µM |  | CC(C)(C)c1ccc(-c2ccc(N)c3nonc23)cc1 [compound 435, 7-(4-t-butylphenyl)-2,1,3-benzoxadiazol-4-amine] |
| ≥ 20 µM | ≥ 20 µM | ≥ 20 µM |  | COc1ccccc1-c1cc(-c2ccccc2OC)c2nonc2c1 [compound 423, 4,6-bis(2-methoxyphenyl)-2,1,3-benzoxadiazole] |
| ≥ 20 µM | ≥ 20 µM | ≥ 20 µM |  | O=[N+]([O-])c1ccc(NS(=O)(=O)c2ccc(Cl)c3nonc23)c2ccccc12 [compound 388, 7-chloro-N-(4-nitronaphthalen-1-yl)-2,1,3-benzoxadiazole-4-sulfonamide] |
| ≥ 20 µM | ≥ 20 µM | ≥ 20 µM |  | COc1ccc(OC)c(NS(=O)(=O)c2ccc(Nc3ccccc3OC)c3nonc23)c1 [compound 367, N-(2,5-dimethoxyphenyl)-7-([2-methoxyphenyl]amino)-2,1,3-benzoxadiazole-4-sulfonamide] |
| 1 to 20 µM |  | ≥ 20 µM | ≥ 20 µM | COc1cc(Nc2ccc(S(=O)(=O)Nc3cc(OC)c(Cl)cc3OC)c3nonc23)c(OC)cc1Cl [compound 349, N-(4-chloro-2,5-dimethoxyphenyl)-7-([4-chloro-2,5-dimethoxyphenyl]amino)-2,1,3-benzoxadiazole-4-sulfonamide] |
| ≥ 20 µM | ≥ 20 µM | ≥ 20 µM |  | O=S(=O)(NCC1CC1)c1ccc(Cl)c2nonc12 [compound 449, 7-chloro-N-(cyclopropylmethyl)-2,1,3-benzoxadiazole-4-sulfonamide] |
| ≥ 20 µM | ≥ 20 µM | ≥ 20 µM |  | Oc1ccc2c(c1)cc(Cl)c1nonc12 [compound 430, 4-chloronaphtho[2,1-c][1,2,5]oxadiazol-7-ol] |
| 1 to 20 µM | 1 to 20 µM | ≥ 20 µM |  | O=[N+]([O-])c1ccc(-c2cc(F)cc(F)c2)c2nonc12 [compound 308, 4-[(3,5-Difluoro)phenyl]-7-nitro-2,1,3-benzoxadiazole] |
| ≥ 20 µM | ≥ 20 µM | ≥ 20 µM |  | COc1cc(C)ccc1NS(=O)(=O)c1ccc(N2CCOCC2)c2nonc12 [compound 386, N-(2-methoxy-4-methylphenyl)-7-(morpholin-4-yl)-2,1,3-benzoxadiazole-4-sulfonamide] |

From US20050282818A1, “Ubiquitin ligase inhibitors” (Rigel Pharmaceuticals, Inc., priority 2004, published 2005)
